Key:
ARH-77 cells = experiment: Cell viability assay (CellTiter-Glo), ARH-77; format: cell-based; conditions: Homo sapiens, ARH-77, 24 hours incubation, 1% FBS, read-out: Average pIC50 by molecule ARH-77 (converted)
Source text: (§1) The effect of various compounds of the invention on the viability of OPM-2, MV-4-11 and ARH-77 cell lines was investigated, using the CTG protocol described below.
(§2) OPM-2 and MV-4-11 cell lines are derived from multiple myeloma and acute myeloid leukaemia, respectively. Both cell lines are described in the literature as MCL-1 dependent lines, as opposed to lymphoblast-like ARH-77 cell line, which is described as independent of MCL-1 (Tron A E et al. Nat Commun. 2018; 9: 5341; Caenepeel S et al. Cancer Discov. 2018 December; 8(12):1582-1597).
(§3) Cells (OPM-2, MV-4-11 or ARH-77) were seeded on […] in a growth medium with FBS reduced to 1%. Next, compound stocks were pre-diluted in DMSO and added directly to the cells growth medium (final DMSO concentration: 0.5%). Compound concentrations used in this assay: 1/3 dilutions starting at 30 uM (9 to 12 points).
(§4) After 24 hours of incubation, cell viability was evaluated using CellTiter-Glo Luminescent Cell Viability Assay (Promega, cat #G7572). Luminescence signal was measured using a CLARIOstar Plus Multi-Mode Microplate Reader (574-590 nm).
(§5) Results were normalized to DMSO control.

MV-4-11 cells = experiment: Cell viability assay (CellTiter-Glo), MV-4-11; format: cell-based; conditions: Homo sapiens, MV4-11, 24 hours incubation, 1% FBS, read-out: Average pIC50 by molecule MV-4-11 (converted)
Source text: as §1, §2, §3, §4, §5

[1] = target: [MCL-1]-[compound of formula (I)]-[CRBN/DDB1] complex (Homo sapiens, UniProt Q07820+Q96SW2); experiment: AlphaLISA dose response ternary complex formation assay; format: binding; conditions: read-out: AlphaLISA dose response Average pEC50 by molecule (converted)
Sequence of [MCL-1]-[compound of formula (I)]-[CRBN/DDB1] complex (Q07820 whole entry): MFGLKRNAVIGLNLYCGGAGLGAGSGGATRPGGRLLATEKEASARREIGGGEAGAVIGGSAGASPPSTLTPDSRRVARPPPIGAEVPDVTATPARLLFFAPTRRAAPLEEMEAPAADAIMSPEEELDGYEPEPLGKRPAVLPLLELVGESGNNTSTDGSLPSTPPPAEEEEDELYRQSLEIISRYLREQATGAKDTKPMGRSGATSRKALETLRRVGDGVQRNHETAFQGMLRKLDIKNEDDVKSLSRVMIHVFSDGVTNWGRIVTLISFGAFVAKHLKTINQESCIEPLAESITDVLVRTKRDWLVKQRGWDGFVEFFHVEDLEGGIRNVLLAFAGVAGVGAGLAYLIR
Sequence of [MCL-1]-[compound of formula (I)]-[CRBN/DDB1] complex (Q96SW2 whole entry): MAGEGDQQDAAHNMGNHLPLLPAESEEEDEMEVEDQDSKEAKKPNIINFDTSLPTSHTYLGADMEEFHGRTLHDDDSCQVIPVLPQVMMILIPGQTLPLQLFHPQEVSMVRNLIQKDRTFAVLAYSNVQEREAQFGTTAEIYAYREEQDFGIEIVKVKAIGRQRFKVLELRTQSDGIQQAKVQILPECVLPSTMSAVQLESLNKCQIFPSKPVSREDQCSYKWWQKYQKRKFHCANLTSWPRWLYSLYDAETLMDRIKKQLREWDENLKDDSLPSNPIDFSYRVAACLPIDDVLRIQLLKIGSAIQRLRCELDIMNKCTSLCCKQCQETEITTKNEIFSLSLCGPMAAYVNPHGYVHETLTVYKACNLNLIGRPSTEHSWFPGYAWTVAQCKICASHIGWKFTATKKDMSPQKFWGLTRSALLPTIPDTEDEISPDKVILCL
Sequence of [MCL-1]-[compound of formula (I)]-[CRBN/DDB1] complex (Q16531 whole entry partner): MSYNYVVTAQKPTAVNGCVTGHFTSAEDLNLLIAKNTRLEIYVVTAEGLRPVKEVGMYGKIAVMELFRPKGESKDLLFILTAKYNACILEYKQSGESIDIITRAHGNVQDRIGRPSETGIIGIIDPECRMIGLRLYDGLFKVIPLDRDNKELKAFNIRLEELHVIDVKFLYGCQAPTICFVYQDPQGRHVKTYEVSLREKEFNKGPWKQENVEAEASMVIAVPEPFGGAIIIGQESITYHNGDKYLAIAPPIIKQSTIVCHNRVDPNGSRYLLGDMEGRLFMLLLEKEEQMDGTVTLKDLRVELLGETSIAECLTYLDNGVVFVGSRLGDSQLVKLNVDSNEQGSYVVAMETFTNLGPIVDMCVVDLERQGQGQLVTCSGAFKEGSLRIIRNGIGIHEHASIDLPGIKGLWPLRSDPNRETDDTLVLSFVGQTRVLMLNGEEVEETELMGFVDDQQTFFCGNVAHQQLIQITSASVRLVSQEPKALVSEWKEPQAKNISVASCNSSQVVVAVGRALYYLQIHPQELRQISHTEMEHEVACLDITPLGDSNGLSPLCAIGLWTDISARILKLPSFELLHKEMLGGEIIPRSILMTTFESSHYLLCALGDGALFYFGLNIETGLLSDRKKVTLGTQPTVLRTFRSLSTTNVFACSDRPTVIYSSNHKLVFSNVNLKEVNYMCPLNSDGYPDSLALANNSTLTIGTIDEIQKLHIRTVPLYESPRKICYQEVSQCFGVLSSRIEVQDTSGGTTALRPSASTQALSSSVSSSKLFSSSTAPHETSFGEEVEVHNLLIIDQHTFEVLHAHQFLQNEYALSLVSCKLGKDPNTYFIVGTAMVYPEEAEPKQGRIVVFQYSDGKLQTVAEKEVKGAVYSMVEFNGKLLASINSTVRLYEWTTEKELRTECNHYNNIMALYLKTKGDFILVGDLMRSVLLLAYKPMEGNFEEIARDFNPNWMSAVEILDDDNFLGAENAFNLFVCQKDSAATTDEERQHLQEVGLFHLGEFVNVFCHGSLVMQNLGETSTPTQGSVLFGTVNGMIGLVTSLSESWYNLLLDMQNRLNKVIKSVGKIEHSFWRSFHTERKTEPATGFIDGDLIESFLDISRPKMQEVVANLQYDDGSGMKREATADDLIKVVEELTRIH
Experimental: The effect of the bifunctional compounds of the invention on the formation of a ternary complex composed of [MCL-1]-[compound of formula (I)]-[CRBN/DDB1] was investigated with two methods: AlphaLISA dose response assay or HTRF ternary complex assay.
Two types of protein solution were prepared: • 40 nM biotinylated hMCL-1, 40 μg/ml AlphaScreen Streptavidin-coated Donor Beads in PBS buffer with 0.1% Tween-20 and 1 mM DTT, • 200 nM 6×His-CRBN/Strep-DDB1, 40 μg/ml AlphaLISA Anti-6×His Acceptor beads in PBS buffer with 0.1% Tween-20 and 1 mM DTT.
The prepared solutions were incubated at room temperature for 45 min and then the solution containing the donor beads was mixed with the solution containing the acceptor beads.
The tested compounds were dispensed onto a white 384-well AlphaPlate 384 SW. DMSO was backfilled to all wells, resulting in a final DMSO content of 2%. Wells containing only DMSO served as background. Next, 10 μl of solution with donor and acceptor beads was added to the wells.
The plate was sealed with transparent film and shaken using a VibroTurbulator for 60 see at room temperature, level 3. The plate was then spun down shortly (10 s, 1000 rcf, room temperature) and incubated at 25° C. for 30 min.
The read-out was performed with PerkinElmer Enspire Multimode Plate Reader (method for AlphaLISA 384-well low volume, Filterset: λexc=680 nm, λem=615 nm).
The results were analyzed as follows: • 1) an average of luminescence for background signal was calculated and used as a negative control; • 2) average of the maximum measured luminescence for 233 was calculated and used as an internal positive control; • 3) raw luminescence values were normalized against positive and negative controls; • 4) concentration points above the hook point were excluded; • 5) EC50 and pEC50 values were determined.

Structure (SMILES)	IC50 (MV-4-11 cells) [nM]	EC50 [1] [nM]	IC50 (ARH-77 cells) [nM]
Cc1nn(C)c(C)c1-c1c(Cl)ccc2c(CCCOc3cccc4cc(F)ccc34)c(C(=O)O)n(CCN3CCN(C(=O)[C@H](C)Oc4cccc5c4C(=O)N(C4CCC(=O)NC4=O)C5=O)CC3)c12 (mixture of isomers) [Compound 318, 6-Chloro-1-(2-(4-((2S)-2-((2-(2,6-dioxopiperidin-3-yl)-1,3-dioxoisoindolin-4-yl)oxy)propanoyl)piperazin-1-yl)ethyl)-3-(3-((6-fluoronaphthalen-1-yl)oxy)propyl)-7-(1,3,5-trimethyl-1H-pyrazol-4-yl)-1H-indole-2-carboxylic acid]	≤ 31.6	< 100	> 10000
Cc1cc(OCCCc2c(C(=O)O)n(CCN3CCN(C(=O)CCOCCOCCOCCOCCOCCOCCNc4cccc5c4C(=O)N(C4CCC(=O)NC4=O)C5=O)CC3)c3c(-c4c(C)nn(C)c4C)c(Cl)ccc23)cc(C)c1Cl (stereo not shown) [Compound 203, 6-chloro-3-[3-(4-chloro-3,5-dimethylphenoxy)propyl]-1-{2-(4-(1-{(2-(2,6-dioxopiperidin-3-yl)-1,3-dioxo-2,3-dihydro-1H-isoindol-4-yl]amino}-3,6,9,12,15,18-hexaoxahenicosanoyl)piperazin-1-yl]ethyl}-7-(1,3,5-trimethyl-1H-pyrazol-4-yl)-1H-indole-2-carboxylic acid]	≤ 1000	< 100	
Cc1nc2cccc(NCC(=O)N3CCN(CCn4c(C(=O)O)c(CCCOc5cccc6cc(F)ccc56)c5ccc(Cl)c(-c6c(C)nn(C)c6C)c54)CC3)c2cc1C1CCC(=O)NC1=O (stereo not shown) [Compound 287, 6-Chloro-1-{2-[4-(2-{[3-(2,6-dioxopiperidin-3-yl)-2-methylquinolin-5-yl]amino}acetyl)piperazin-1-yl]ethyl}-3-{3-[(6-fluoronaphthalen-1-yl)oxy]propyl}-7-(1,3,5-trimethyl-1H-pyrazol-4-yl)-1H-indole-2-carboxylic acid]	≤ 1000		> 3160
Cc1nn(C)c(C)c1-c1c(Cl)ccc2c(CCCOc3cccc4cc(F)ccc34)c(C(=O)O)n(CCN3CCN(C(=O)COc4cccc5c4CN([C@@H]4CCC(=O)NC4=O)C5=O)CC3)c12 [Compound 297, (R)-6-Chloro-1-(2-(4-(2-((2-(2,6-dioxopiperidin-3-yl)-1-oxoisoindolin-4-yl)oxy)acetyl)piperazin-1-yl)ethyl)-3-(3-((6-fluoronaphthalen-1-yl)oxy)propyl)-7-(1,3,5-trimethyl-1H-pyrazol-4-yl)-1H-indole-2-carboxylic acid]	≤ 100		> 10000

Further lines, with some results ahead:

IC50 (MV-4-11 cells) [nM]	EC50 [1] [nM]	Structure (SMILES)	IC50 (ARH-77 cells) [nM]
≤ 100		Cc1nn(C)c(C)c1-c1c(Cl)ccc2c(CCCOc3cccc4cc(F)ccc34)c(C(=O)O)n(CCN3CCN(C(=O)[C@H](C)Oc4cccc5c4C(=O)N([C@@H]4CCC(=O)NC4=O)C5=O)CC3)c12 (single isomer, unassigned) [Compound 320]	> 10000
	< 1000	Cc1nn(C)c(C)c1-c1c(Cl)ccc2c(CCCOc3cccc4c3C3CCC4C3)c(C(=O)O)n(CCN3CCN(C(=O)COc4cccc5c4CN(C4CCC(=O)NC4=O)C5=O)CC3)c12 (stereo not shown) [Compound 352, 6-Chloro-1-(2-(4-(2-((2-(2,6-dioxopiperidin-3-yl)-1-oxoisoindolin-4-yl)oxy)acetyl)piperazin-1-yl)ethyl)-3-(3-((1,2,3,4-tetrahydro-1,4-methanonaphthalen-5-yl)oxy)propyl)-7-(1,3,5-trimethyl-1H-pyrazol-4-yl)-1H-indole-2-carboxylic acid]	
	< 1000	Cc1nn(C)c(C)c1-c1c(Cl)ccc2c(CCCN(C)c3cccc4ccccc34)c(C(=O)O)n(CCN3CCN(C(=O)COc4cccc5c4CN(C4CCC(=O)NC4=O)C5=O)CC3)c12 (stereo not shown) [Compound 353, 6-Chloro-1-(2-(4-(2-((2-(2,6-dioxopiperidin-3-yl)-1-oxoisoindolin-4-yl)oxy)acetyl)piperazin-1-yl)ethyl)-3-(3-(methyl(naphthalen-1-yl)amino)propyl)-7-(1,3,5-trimethyl-1H-pyrazol-4-yl)-1H-indole-2-carboxylic acid]	

From patent publication US20240294499A1, “TARGETED PROTEIN DEGRADATION USING BIFUNCTIONAL COMPOUNDS THAT BIND UBIQUITIN LIGASE AND TARGET MCL-1 PROTEIN” (Captor Therapeutics S.A., priority 2021, published 2024)
